Patent US11419951B2, “Peptide-based cancer imaging agents” (Ohio State Innovation Foundation, priority 2017, dated 2022)
Non-standard residues stand in square brackets, D forms with d. Residues, ends and D or L forms follow the SMILES beside them. *: point of attachment. IRDye800CW = CC1(C)C(/C=C/C2=C(Oc3ccc(S(=O)(=O)O)cc3)C(=C/C=C3/N(CCCCS(=O)(=O)O)c4ccc(S(=O)(=O)O)cc4C3(C)C)/CCC2)=[N+](CCCCCC(=O)*)c2ccc(S(=O)(=O)[O-])cc21; Phe(4-I) = N[C@@H](Cc1ccc(I)cc1)C(=O)O; Fmoc = O=C(OCC1c2ccccc2-c2ccccc21)*

Assays:
Cal 27 cells [1] = assay: Fluorescence microscopy assay with Cal 27 cells; type: cell-based, human; settings: 10 μM, 1 h and 24 h incubation
Excerpt: The chamber slide scaffold was then removed. […] FBS protein binding assay.

[2] = Blood clearance and urine accumulation in mice; type: in vivo, mouse; settings: for total blood fluorescence (% ID/blood) / blood clearance: mice, 40 nmol i.v.; for blood clearance: 24 h
Description: Mice urine was collected until 3 h p.i. […] Blood volume was calculated based upon mouse weight. Fluorescence change in blood was plotted versus time using Microsoft Excel software. All data are presented as mean (SD). A Student's t-test (Microsoft Excel Software) was employed to analyze the difference between two points.

Cal 27 xenograft tumors = assay: In vivo imaging of mice bearing Cal 27 flank xenograft tumors; parameters: species or system mouse; settings: 40 nmol i.v.; for tumor to muscle contrast ratio, 2 mm slices / tumor to muscle contrast ratio, whole tumor: 8 h; for tumor to muscle contrast ratio, 2 mm slices / tumor to muscle contrast ratio, whole tumor / tumor to muscle ratio, 2 mm thickness / tumor to muscle ratio, whole tumor / tumor to muscle signal ratio, 2 mm thickness tumor / tumor to muscle signal ratio, whole tumor: ex vivo; for tumor to muscle ratio, 2 mm thickness / tumor to muscle ratio, whole tumor: 24 h; for tumor to muscle signal ratio, 2 mm thickness tumor / tumor to muscle signal ratio, whole tumor: 48 h
[3] = test system: TT and MZ-CRC1 flank xenografts; assay: NIRF imaging of MTC subcutaneous flank xenografts; type: in vivo, mouse
Description: Cells were removed from the […] tissue culture dish by incubation with 0.25% trypsin EDTA (Gibco). Cells were rinsed in 1× PBS, and resuspended at 1×10^7 cells/mL in 1× PBS. For each of two cell lines (TT and MZ-CRC1) one million cells of each cell line were then combined with 100 μL of matrigel and injected into separate flanks (TT-right; MZ-CRC1 left) of athymic nude mice (5 weeks old, obtained from Target Validation Shared Resource at The Ohio State University). Development of tumors was monitored by visual examination until volumes can be determined by caliper measurements. Tumor volumes were determined using the formula: Tumor volume=1/2×(length×width^2). Once both tumors reached a minimum volume of 150 mm^3 the animals were injected with 40 nmoles of 4Iph-HN18-IR800 via tail-vein injection. Animals were imaged using CRi Maestro at three, six, 24, 36 and 48 hours following the injection.
Forty-eight hours after injection the animals were euthanized and skinned for imaging. The tumors along with internal organs were removed for imaging. The animals were imaged using both a CRi Maestro white light excitation imager (CRi Inc., Woburn, Mass., USA) and a laser excitation Fluobeam™ 800 NIR imaging system (Fluoptics, Grenoble, France). Comparisons between tissues were made by placing all tissues relevant to the comparison in the same image to equalize exposure time.

[4] = test system: TT and MZ-CRC1 orthotopic xenografts; assay: NIRF imaging of MTC orthotopic xenografts; type: in vivo, mouse; settings: 40 nmoles tail vein
Description: Cells were treated with 0.25% Trypsin EDTA to remove from culture dishes. Cells were rinsed and resuspended in 1× PBS at 5×10^7 cells/mL and kept on ice. Athymic nude mice (˜5-6 weeks, TVSR) were anesthetized with isofluorane and skin sterilized by use of 4% chlorhexidine (Henry Schein Animal Health, Columbus, Ohio). A sterile field was established and a vertical cervical incision was made. Visualization was achieved by use of a dissecting microscope. Strap muscles and submandibular glands were separated and reflected, respectively, using blunt dissection. Once trachea and thyroid were adequately visualized ten microliters of cell suspension was injected into the target thyroid lobe using an insulin syringe needle (27 ga, Terumo, Somerset, N.J., USA). Submandibular tissue was re-approximated and the incision was closed by use of 6-0 absorbable surgical sutures. Mice were allowed to recover from anesthesia, returned to their cage and supplied with analgesics (ibuprofen 2 mg/mL) for seven days. All animal studies were done under protocols approved by The Ohio State University Laboratory Animals Recourse.
40 nmoles of 4Iph-IIN18-IR800 were into the animal via tail vein injection. The animals were imaged using both a CRi Maestro white light excitation imager (CRi Inc., Woburn, Mass., USA) and a laser excitation Fluobeam™ 800 MR imaging system (Fluoptics, Grenoble, France). Tumors and equal volume of muscle tissue excised and compared for fluorescence.

MTC cells = assay: Fluorescence microscopy of MTC cells in vitro; type: cell-based, human
[5] = Molar fluorescence emission; type: physicochemical; settings: when serum proteins are present
[6] = mouse, serum
Cal 27 cells [7] = assay: Cell uptake in cultured Cal 27 cells (fluorescence of cell lysates, plate reader); type: cell-based, human; settings: for relative cell uptake: Cal 27 cells, 2 h incubation, 0.625-10 μM, normalized to f-HN1-IR800 at 10 μM
[8] = FBS protein binding assay; settings: 25 μM agent in 100% FBS
Cal 27 cells [9] = assay: Cell viability of Cal 27 cells (Resazurin); type: cell-based, human
Cal 27 cells [10] = assay: Confocal microscopy / FACS of live unfixed Cal 27 cells (internalization and mechanism); settings: for cellular localization by confocal microscopy: live Cal 27 cells
HNSCC cells = settings: cited from earlier work
HNSCC cell lines = settings: 2.6 uM for 48 h; cited from earlier work
[11] = test system: MDA-MB-231 fat pad tumors; assay: Optical imaging of fat pad breast cancer tumors; type: in vivo, mouse; settings: 40 nmol, images 24 hours after injection
Description: In one of these mice with two such tumors, after the tumors grew to about 1 cm diameter, the mouse was injected with 40 nmol of f-f-HN17-IR800.
A second orthotopic xenograft was used to examine the ability of 4Iph-HN18-IR800 to accumulate at the site of the orthotopic xenograft for breast cancer using MBA-MD-231 triple negative human breast cancer cells. MBA-MD-231 cells were implanted into two of the fat pads nude female mice. In one of these mice with two such tumors, after the tumors grew to about 1 cm diameter, the mouse was injected with 40 nmol of f-HN18-IR800, and the images were recorded 24 hours later using a FluOptics Fluobeam optical surgical imager (FIG. 9B).

## CC[C@H](C)[C@H](NC(=O)[C@H](Cc1c[nH]cn1)NC(=O)[C@H](CC(N)=O)NC(=O)[C@H](CO)NC(=O)[C@H](CC(N)=O)NC(=O)[C@@H]1CCCN1C(=O)[C@H](CC(C)C)NC(=O)[C@H](Cc1ccc(I)cc1)NC(=O)OCC1c2ccccc2-c2ccccc21)C(=O)N[C@@H](CCCCNC(=O)CCCCC[N+]1=C(/C=C/C2=C(Oc3ccc(S(=O)(=O)O)cc3)C(=C/C=C3/N(CCCCS(=O)(=O)O)c4ccc(S(=O)(=O)O)cc4C3(C)C)/CCC2)C(C)(C)c2cc(S(=O)(=O)[O-])ccc21)C(=O)N[C@@H](CCC(N)=O)C(=O)NCC(=O)N[C@@H](CC(C)C)C(N)=O [4Iphf-HN18-IR800] (Fmoc-[Phe(4-I)]LPNSNHIK(IRDye800CW)QGL-NH2)
Cal 27 cells [1]
  fluorescent signal at 800 nm in cells: bright at both 1 h and 24 h
Cal 27 cells [1]; listed as 4Iph-HN18-IR800
  fluorescent signal at 800 nm in cells: bright red signal inside of the cells
[2]; 5 min
  total blood fluorescence (% ID/blood): 37.1%
[2]; 30 min
  total blood fluorescence (% ID/blood): 22.2%
[2]; 1 h
  total blood fluorescence (% ID/blood): 14.1%
[2]; 3 h
  total blood fluorescence (% ID/blood): 9.6%
[2]
  blood clearance: nearly complete clearance by 24 h
[2]; mouse, in vivo, 40 nmol intravenous dose, estimated, read-out: initial plasma concentration
  C0: ~50 µM
Cal 27 xenograft tumors
  tumor to muscle contrast ratio, 2 mm slices: 3.0
  tumor to muscle contrast ratio, whole tumor: 3.8
  tumor to muscle ratio, 2 mm thickness: 11.7
  tumor to muscle ratio, whole tumor: 8.8
  tumor to muscle signal ratio, 2 mm thickness tumor: 17.5
  tumor to muscle signal ratio, whole tumor: 11.1
Cal 27 xenograft tumors; whole mice, 3-48 h
  time of best contrast of tumor to body background: 48 h
[3]; 40 nmoles tail vein, from 24 h to 48 h
  localization in MTC flank xenografts: increased contrast was observed with background at the site of the xenografts
[3]; flank xenograft mice
  accumulation in kidneys: accumulate in kidneys
[3]; same animal
  fluorescence of muscle tissue (thigh) compared to xenografts: very little fluorescence compared to xenografts
[4]; listed as 4Iph-HN18-IR800
  fluorescence at MTC orthotopic xenograft: principally found in the orthotopic xenograft
[4]; listed as 4Iphf-HN18-IR800HN18
  fluorescence at MTC orthotopic xenograft: allows imaging of orthotopic xenografts of MTC
MTC cells
  fluorescence in MTC cells in vitro: fluorescence in treated cells coincided with localization of mitochondria
[5]
  molar fluorescence emission relative to HN1-IR800: approximately 1.5 fold
[6]
  half-life: 5.29 h

## CC[C@H](C)[C@H](NC(=O)[C@H](CC(N)=O)NC(=O)[C@H](CC(C)C)NC(=O)[C@@H]1CCCN1C(=O)[C@H](CO)NC(=O)[C@@H](N)[C@@H](C)O)C(=O)N[C@@H](Cc1c[nH]cn1)C(=O)N[C@@H](CC(N)=O)C(=O)NCC(=O)N[C@@H](CCC(N)=O)C(=O)N[C@@H](CCCCNC(=O)CCCCC[N+]1=C(/C=C/C2=C(Oc3ccc(S(=O)(=O)O)cc3)C(=C/C=C3/N(CCCCS(=O)(=O)O)c4ccc(S(=O)(=O)O)cc4C3(C)C)/CCC2)C(C)(C)c2cc(S(=O)(=O)[O-])ccc21)C(=O)N[C@@H](CC(C)C)C(N)=O [HN1-IR800] (H-TSPLNIHNGQK(IRDye800CW)L-NH2; C-terminus assumed)
Cal 27 cells [7]
  concentration at which agent uptake by the cells was approximately saturated: ~10 µM
Cal 27 cells [1]
  fluorescent signal at 800 nm in cells: little fluorescent signal
Cal 27 cells [1]; listed as HN-1-IR800
  fluorescent signal at 800 nm in cells: little to no fluorescence in cells
[2]; 5 min
  total blood fluorescence (% ID/blood): 9.7%
[2]; 30 min
  total blood fluorescence (% ID/blood): 2.8%
[2]; 1 h
  total blood fluorescence (% ID/blood): 2.1%
[2]; 3 h
  total blood fluorescence (% ID/blood): 0.3%
[2]
  blood clearance: nearly complete clearance by 24 h
Cal 27 xenograft tumors
  tumor to muscle contrast ratio, 2 mm slices: 4.0
  tumor to muscle contrast ratio, whole tumor: 3.9
  tumor to muscle ratio, 2 mm thickness: 4.6
  tumor to muscle ratio, whole tumor: 4.7
  tumor to muscle signal ratio, 2 mm thickness tumor: 4.2
  tumor to muscle signal ratio, whole tumor: 6.3
[8]
  bound to FBS: ~52%

## CC1(C)C(=CC=C2CCCC(C=CC3=[N+](CCCCCC(=O)[O-])c4ccc(S(=O)(=O)[O-])cc4C3(C)C)=C2Oc2ccc(S(=O)(=O)[O-])cc2)N(CCCCS(=O)(=O)[O-])c2ccc(S(=O)(=O)[O-])cc21.[Na+].[Na+].[Na+].[Na+] [IRDye800CW, reference compound]
Cal 27 cells [1]
  fluorescent signal at 800 nm in cells: little fluorescent signal
Cal 27 cells [1]; listed as IR800 dye
  fluorescent signal at 800 nm in cells: little to no fluorescence in cells

## (4-I)FRLPNSNHIKR3QGL [4Iphf-HN18-Cy5]
Cal 27 cells [9]
  cell viability: does not affect cell viability
Cal 27 cells [10]; 5 uM for 1 h, live unfixed Cal 27 cells
  entry of propidium iodide on simultaneous incubation: the propidium iodide does penetrate the Cal 27 cell membrane
Cal 27 cells [10]; 37 degrees C. vs 4 degrees C.
  effect of lowering temperature on membrane binding and penetration: slows down all processes including membrane binding and penetration
Cal 27 cells [10]; Cal 27 live unfixed cells
  time to visible penetration into the cytosol: ≤ 5 min
Cal 27 cells [10]
  cellular localization by confocal microscopy: clearly located inside the HNSCC cancer cells
Cal 27 cells [10]; listed as 4Iphf-HN18-CY5
  cellular localization by confocal microscopy: located in the cytosol
Cal 27 cells [10]; sodium azide, Nocodazole, MβCD, Chloropromazine, amiloride
  internalization in the presence of endocytosis inhibitors: did not stop internalization

## LNKQTHGLIPNS [HNscr]
HNSCC cells
  uptake compared with HN1: did not differ significantly in uptake from HN1

## NQHSKNTLLIGP [HNJ]
HNSCC cell lines
  cell internalization: negative internalization

## NQHSKR2NTLLIGP [HN-J-IR800]
Cal 27 cells [7]
  relative cell uptake: poor uptake
Cal 27 cells [1]
  fluorescent signal at 800 nm in cells: little fluorescent signal
Cal 27 cells [1]; listed as HNJ-IR800
  fluorescent signal at 800 nm in cells: little to no fluorescence in cells
[4]
  fluorescence at MTC orthotopic xenograft: little to no fluorescence

## NRQHSKR2NTLLIGP [f-HN-J-IR800]
Cal 27 cells [7]
  relative cell uptake: increased the uptake significantly

## TRLPNSNHIKR2QGL [f-HN17-IR800]
[11]
  localization in breast cancer tumors: localization of the f-HN17-IR800 in the tumors
